# Measured values: ChEMBL document CHEMBL1146805, “Carbonic anhydrase inhibitors. Inhibition of cytosolic isozyme XIII with aromatic and heterocyclic sulfonamides: a novel target for the drug design” (Bioorg Med Chem Lett, 2004)
# pKi: −log10 of the molar value.
# Target: Carbonic anhydrase 13 (Mus musculus, UniProt Q9D6N1)
# Sequence (Q9D6N1 whole entry): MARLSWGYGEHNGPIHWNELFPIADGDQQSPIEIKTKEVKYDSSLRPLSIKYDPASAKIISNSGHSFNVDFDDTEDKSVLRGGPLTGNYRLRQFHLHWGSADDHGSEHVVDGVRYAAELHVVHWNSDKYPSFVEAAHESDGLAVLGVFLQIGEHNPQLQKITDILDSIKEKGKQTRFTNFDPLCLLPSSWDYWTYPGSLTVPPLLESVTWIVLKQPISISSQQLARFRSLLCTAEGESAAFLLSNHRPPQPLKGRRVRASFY
# Description: Inhibitory activity against murine carbonic anhydrase XIII (mCA XIII) by using CO2 hydrase assay method
row,Compound,pKi
1,Nc1ccc(S(N)(=O)=O)cc1Br,7.27
2,NCCc1ccc(S(N)(=O)=O)cc1,7.37
3,Nc1ccc(S(N)(=O)=O)cc1Cl,7.25
4,Nc1ccccc1S(N)(=O)=O,7.37
5,Nc1ccc(S(N)(=O)=O)cc1I,7.30
6,Nc1ccc(S(N)(=O)=O)cc1F,7.30

# The remaining lines, values ahead:
row,pKi,Compound
1,8.62,Nc1ccc(S(=O)(=O)Nc2ccc(S(N)(=O)=O)cc2)cc1
2,8.89,Nc1ccc(S(=O)(=O)NCCc2ccc(S(N)(=O)=O)cc2)cc1
3,8.72,Nc1ccc(S(=O)(=O)NCc2ccc(S(N)(=O)=O)cc2)cc1
4,7.39,NCc1ccc(S(N)(=O)=O)cc1 [MAFENIDE]
5,7.49,Nc1ccc(S(N)(=O)=O)cc1 [SULFANILAMIDE]
